Reference: patent US7615361B2, “Toxicity screening methods” (Ceetox, Inc., priority 2006, dated 2009)
Like-named read-outs stand apart in the source and are kept apart here.

What was measured:
Intracellular ATP levels = format: cell-based; conditions: rat, NRK cells, read-out: ATP TC50
Description: Intracellular ATP Levels: Cellular Adenosine triphosphate (ATP) was determined with an assay based on a reaction between ATP+D-luciferin+oxygen catalyzed by luciferase to yield Oxyluciferin+AMP+PPi+CO2+light. The emitted light is proportional to the amount of ATP present. […] In addition, a unique cell lysis reagent inhibits endogenous ATPases and therefore stabilizes cellular ATP by preventing its degradation to ADP. ATP is present in all-living cells and declines rapidly upon cell death. In addition, this assay in combination with the MTT assay provides an indicator of mitochondrial activity and energy status of the cell.
Plates were analyzed immediately or stored at −20° C. until needed. On the day of analysis, the plates were thawed and calibration curve prepared with ATP in the same liquid matrix as samples. ATP was quantified by adding ATP substrate solution and then reading luminescence on a Packard Fusion Luminescence or equivalent plate reader.
Intracellular ATP Levels: ATP levels in treated cells could be determined by using the regression coefficients obtained from the linear regression analysis of the calibration curve. Thus, values could be expressed as pmoles ATP/million cells. Background corrected luminescence was used to determine percent change relative to controls by dividing treated values by control values and multiplying by 100.
The third experiment was done to evaluate the specificity and selectivity of the test compound in another non-tumor cell that was derived from normal rat kidney tissue. In this experiment the test compound has no effect on cell number of acute cell death up to the 500 dilution after 6 and 24 hr of exposure (FIG. 76C and 77C). Significant effects were observed on mitochondrial markers at dilutions that dropped pH to 3.7. The bar graph in FIG. 82 summarizes these effects. […] In contrast the rat tumor cell line was sensitive to the test compound and cell death occurred at the 500 dilution and could not be attributed to low pH.

BrdU incorporation = format: cell-based, human; conditions: human, run #2, read-out: BrdU TC50; for CC50 at 24 h: SK-MEL28, 24 HR; for CC50 at 72 h: SK-MEL28, 72 HR
Description: Bromodexoyurine (BrDU) Incorporation: This assay was used to monitor cumulative changes in DNA replication. The assay uses the thymidine analog BrdU to measure S-phase of cell replication and is considered to be the Gold Standard for cell proliferation. BrDU (10 μM) was included in the test compound dosing solution to allow BrDU incorporation during cell replication. BrDU was included for the duration of the exposure, 24 hr. After completion of exposure period, the cells were fixed and labeled with mouse monoclonal anti-BrDU (FITC). Fluorescence was measured using a Packard Fusion or equivalent plate reader at 485 nm excitation and 530 nm emission.
Bromodexoyurine (BrDU) Incorporation: After incubation, the test compound/BrDU solution was removed and cells were fixed. A solution containing mouse monoclonal anti-BrDU (FITC) was added and fluorescence was measured. Data were collected as relative fluorescent units (RFU). The blank was subtracted from the final well RFU. It represents the average of the first and last columns which contain no cells on that particular plate. The controls are untreated cells allowed to grow on the same plate. The compounds are represented by several separate RFU data points for each of the tested concentrations. The percent change relative to controls was calculated by dividing the average RFU by the control cell RFU and multiplying by 100.
Experiments were also conducted to verify the relationship between exposure time and the observed cytostatic effects of the test compound. An additional assay was used to monitor cumulative change in DNA replication. The assay uses the thymidine analog BrdU to measure S-phase of cell replication and is considered to be the Gold Standard for cell proliferation. […] The BrdU assay paralleled the MTT and propidium iodide assays. The apparent lower sensitivity of the BrdU assay is a reflection of the experimental design not the assay. BrdU data represents a cumulative effect from the beginning of exposure while the other assays are measuring one is remaining at the end of either the 24 hr or 72 hr exposure period. […] There was a trend toward increasing activity in caspase-3, a marker for cell apoptosis.

rat cardiomyocytes = test: Caspase 3 activity (apoptosis); format: cell-based
Description: (§1) One test compound (Compound A) was received as dry powder and evaluated for potential cytotoxicity in a battery of in vitro assays. The compound was tested using both rat cardiomyocytes (CM) from rat neonates and a rat hepatoma (H4IIE) cell line. […] The cell supernatant or the cells themselves were harvested for biochemical analysis. General cytotoxicity was evaluated by monitoring membrane integrity, mitochondrial function, cell proliferation, oxidative stress, and apoptosis. In addition, interaction with P-glycoprotein (PgP) on H4IIE cells and solubility of the test compound were also assessed. The means of each exposure group (n=3-7) were calculated for each assay performed.
(§2) Caspase 3 Procedure: Caspase 3 activity was determined using a caspase substrate (DEVD, Asp-Glu-Val-Asp) labeled with a fluorescent molecule, 7-Amino4-methylcoumarin (AMC). Caspase 3 cleaves the tetrapeptide between D and AMC, thus releasing the fluorogenic […] AMC. Following the test article exposure to cells in 96-well plates, medium was aspirated from plates and PBS added to each well. Plates were stored at −80° C. to lyse cells and store samples until further analysis. On the day of analysis, plates were removed from freezer and thawed. Caspase buffer with fluorescent substrate was added to each well and incubated at room temperature for 1 hr. AMC release was measured in a spectrofluorometer at an excitation wavelength of 360 nm and an emission wavelength of 460 nm. Values are expressed as relative fluorescent units (RFU).
(§3) Caspase Activity: After sample plates were completely thawed, the caspase substrate buffer mix was added to each plate. Plates were incubated at room temperature for 1hr, shielded from light. Plates were read using a in a spectrofluorometer at an excitation wavelength of 360 nm and an emission wavelength of 460 nm. Values were expressed as relative fluorescent units (RFU).
(§4) The key to the maximal response data can be found below Table 2.

H4IIE cells = test: Caspase 3 activity (apoptosis); format: cell-based, rat
Description: as §1
Experimental Protocol: The test compound was provided and stored at 4° C. until needed. Dosing solutions were prepared in complete culture medium. The rat hepatoma (H4IIE) cell line was used as the test system.
as §2, §3, §4

[1] = H4IIE, 24 HR, exposure concentration that produced the response (μM series)

CC[C@@]1(O)C(=O)OCc2c1cc1n(c2=O)Cc2cc3ccccc3nc2-1 [CAMPTOTHECIN, Camptothecin]
CC50 at 6 h (Intracellular ATP levels): 300 µM | CC50 at 24 h (Intracellular ATP levels): 9 µM | CC50 at 24 h (BrdU incorporation; SK-MEL28 cells): 0.1 µM | CC50 at 72 h (BrdU incorporation; SK-MEL28 cells): 0.2 µM | Caspase 3 Activity (Index/Dose): Index (rat cardiomyocytes; CM, 24 HR): 6 (1000-1200 = 6) | Caspase 3 Activity (Index/Dose): Dose (rat cardiomyocytes; CM, 24 HR, exposure concentration that produced the response (μM series)): 300 | Caspase 3 Activity (Index/Dose): Index (H4IIE cells; H4IIE, 24 HR): 5 (800-1000 = 5) | Caspase 3 Activity (Index/Dose): Dose (H4IIE cells; [1]): 100

CC(C)Nc1cccnc1N1CCN(C(=O)c2cc3cc(NS(C)(=O)=O)ccc3[nH]2)CC1 [DELAVIRDINE, delavirdine]
Caspase 3 Activity (Index/Dose): Dose (rat cardiomyocytes; rat, 24 h): 100

COc1cccc2c1C(=O)c1c(O)c3c(c(O)c1C2=O)C[C@@](O)(C(=O)CO)C[C@@H]3O[C@H]1C[C@H](N)[C@@H](O)[C@H](C)O1 [EPIRUBICIN, epirubicin]
Caspase 3 Activity (Index/Dose): Dose (rat cardiomyocytes; rat, 24 h): 20 | Caspase 3 Activity (Index/Dose): Dose (H4IIE cells; rat, 24 h): 50

Cc1cccc(C)c1OCC(=O)N[C@@H](Cc1ccccc1)[C@@H](O)C[C@H](Cc1ccccc1)NC(=O)[C@H](C(C)C)N1CCCNC1=O [LOPINAVIR, lopinavir]
Caspase 3 Activity (Index/Dose): Dose (rat cardiomyocytes; rat, 24 h): 100 | Caspase 3 Activity (Index/Dose): Dose (H4IIE cells; rat, 24 h): 300

COc1cccc2c1C(=O)c1c(O)c3c(c(O)c1C2=O)C[C@@](O)(C(=O)CO)C[C@@H]3O[C@H]1C[C@H](N)[C@H](O[C@@H]2CCCCO2)[C@H](C)O1 [PIRARUBICIN, pirarubicin]
Caspase 3 Activity (Index/Dose): Index (H4IIE cells; H4IIE, 24 HR): 8 (1400-1600 = 8) | Caspase 3 Activity (Index/Dose): Dose (H4IIE cells; [1]): 10 (1800-2000 = 10)

C=C(C)[C@H]1Cc2c(ccc3c2O[C@@H]2COc4cc(OC)c(OC)cc4[C@@H]2C3=O)O1 [ROTENONE, Rotenone]
CC50 at 6 h (Intracellular ATP levels): 10 µM | CC50 at 24 h (Intracellular ATP levels): 10 µM | CC50 at 24 h (BrdU incorporation): 9 µM | CC50 at 72 h (BrdU incorporation): 44 µM
